Holding throughout (format): functional, cell-based
Experiment [1] has as its system RAW264.7. Description: Inhibition of LPS-induced TLR4 expression in Mus musculus (mouse) RAW264.7 cells pretreated for 1 hr before treatment with 100 ng/ml LPS for 6 hr by RT-PCR analysis.
Experiment [2] deals with RAW264.7. Description: Inhibition of LPS-induced TLR4 expression in Mus musculus (mouse) RAW264.7 cells pretreated for 1 hr before treatment with 100 ng/ml LPS for 6 hr by Western blot analysis. (In western blotting, separated proteins are transferred to a membrane and probed.)
Experiment [3] concerns RAW264.7. Description: Effect on HSP70 protein level in Mus musculus (mouse) RAW264.7 cells pretreated for 1 hr before treatment with 100 ng/ml LPS for 6 hr by RT-PCR analysis.
The subject of experiment [4] is RAW264.7. Put plainly: Effect on HSP70 mRNA level in Mus musculus (mouse) RAW264.7 cells pretreated for 1 hr before treatment with 100 ng/ml LPS for 6 hr by RT-PCR analysis.
The test system of experiment [5] is RAW264.7. Description: Inhibition of LPS-induced TNF-alpha level in Mus musculus (mouse) RAW264.7 cells pretreated for 1 hr before treatment with 100 ng/ml LPS for 6 hr by ELISA.
For experiment [6], the system named is RAW264.7. Description: Inhibition of LPS-induced IL-6 level in Mus musculus (mouse) RAW264.7 cells pretreated for 1 hr before treatment with 100 ng/ml LPS for 6 hr by ELISA. For orientation: ELISA stands for enzyme-linked immunosorbent assay.

Calls of active or inactive are those of the source. No cut-off for these calls is given here.

`CC(C)[C@]12O[C@H]1[C@@H]1O[C@]13[C@]1(O[C@H]1C[C@H]1C4=C(CC[C@@]13C)C(=O)OC4)[C@@H]2O`: the inhibition entry in the experiment on RAW264.7 [1], with RAW264.7 [2], with RAW264.7 [5] and in the experiment on RAW264.7 [6] was “Dose-dependent effect” in each case. Further, the result with RAW264.7 [3] and in the experiment with RAW264.7 [4] was inactive.

The values above are taken from ChEMBL document CHEMBL3045032, “Triptolide suppresses lipopolysaccharide-induced activity of toll-like receptor 4 in mouse macrophage cell line RAW 264.7” (Med Chem Res, 2012).
